Earlier results in patent US20250032538A1, “METHOD AND COMPOSITION FOR RESTORING HOMEOSTASIS, TREATING, AND PREVENTING DEGENERATIVE DISEASES, ACHIEVING ANTI-AGING EFFECT” (Vector Vitale IP LLC, priority 2023, published 2025).
Where two headings read alike, the source gives them in different places.

Experiments:
[1] = test system: rats
[2] = test system: rats; details: rat, in vivo

Compound: [Cl-].[Cl-].[Cl-].[Sc+3] [scandium (III) chloride]
- half lethal dose (LD50) ([1]; intraperitoneal): 4 mg/kg
- half lethal dose (LD50) ([1]; oral administration): 755 mg/kg

Compound: Titanium dioxide
- carcinogenicity: lung tumors [2]: increased lung tumors
